These are literature values, as cited in patent US8097625B2, “Combination of sedative and a neurotransmitter modulator, and methods for improving sleep quality and treating depression” (priority 2003, dated 2012).

Where a name gives a salt, the structure may show the parent alone.

For series [1] the following is noted: oral, 10 mg or 20 mg daily doses; cited from earlier work.
For series [2], the system named is patients with major depression. The following applies: 24 patients (37 trials) with major depression, 3 weeks; cited from earlier work.
Series [3] has as its system norepinephrine and serotonin reuptake. The following applies: cited from earlier work.
The conditions of series [4]: humans, cited from earlier work.
The conditions of series [5]: cited from earlier work.
Series [6] concerns the target norepinephrine transporter (Homo sapiens, UniProt P23975). The conditions noted are these: cited from earlier work.
The conditions of series [7]: cited from earlier work. This is another data set of the same source.
Series [8] concerns lumbar dorsal horn interneurones and Renshaw cells. The conditions noted are these: cats anaesthetized with pentobarbitone sodium; electrophoretic currents; cited from earlier work.
The next series relates to GABA uptake system. Also noted: dose or concentration left out as unconfirmed. The following applies: cited from earlier work.
Series [9] addresses GABA:2-oxo-glutarate aminotransferase (Homo sapiens, UniProt P80404). The following applies: 10^−3 M; cited from earlier work.
Series [10] has as its system L-glutamate 1-carboxylase. The conditions noted are these: 10^−3 M; cited from earlier work.
For a further series, the system named is mice. The following applies: reference agents, scores below 40 denote behavioral depression; cited from earlier work.
For series [11] the following is noted: humans, 20 or 40 mg b.i.d. for 7 days; cited from earlier work.
The conditions of series [12]: oral; cited from earlier work.

Sequence of norepinephrine transporter (P23975 whole entry): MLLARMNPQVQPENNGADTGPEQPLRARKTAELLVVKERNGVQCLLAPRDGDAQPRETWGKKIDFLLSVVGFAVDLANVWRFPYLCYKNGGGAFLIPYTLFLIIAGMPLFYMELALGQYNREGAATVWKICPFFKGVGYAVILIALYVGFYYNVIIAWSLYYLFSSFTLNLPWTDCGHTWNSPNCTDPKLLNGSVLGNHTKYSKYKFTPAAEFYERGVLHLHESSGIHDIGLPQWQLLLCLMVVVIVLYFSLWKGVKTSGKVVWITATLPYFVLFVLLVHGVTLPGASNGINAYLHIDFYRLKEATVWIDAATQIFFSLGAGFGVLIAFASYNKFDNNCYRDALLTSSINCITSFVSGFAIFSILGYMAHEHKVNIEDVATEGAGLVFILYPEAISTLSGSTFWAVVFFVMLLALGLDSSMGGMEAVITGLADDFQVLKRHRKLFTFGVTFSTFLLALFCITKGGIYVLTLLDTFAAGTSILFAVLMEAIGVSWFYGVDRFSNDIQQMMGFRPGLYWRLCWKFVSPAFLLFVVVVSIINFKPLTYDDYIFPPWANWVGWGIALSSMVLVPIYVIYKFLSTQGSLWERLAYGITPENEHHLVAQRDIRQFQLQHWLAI
Sequence of GABA:2-oxo-glutarate aminotransferase (P80404 29-500): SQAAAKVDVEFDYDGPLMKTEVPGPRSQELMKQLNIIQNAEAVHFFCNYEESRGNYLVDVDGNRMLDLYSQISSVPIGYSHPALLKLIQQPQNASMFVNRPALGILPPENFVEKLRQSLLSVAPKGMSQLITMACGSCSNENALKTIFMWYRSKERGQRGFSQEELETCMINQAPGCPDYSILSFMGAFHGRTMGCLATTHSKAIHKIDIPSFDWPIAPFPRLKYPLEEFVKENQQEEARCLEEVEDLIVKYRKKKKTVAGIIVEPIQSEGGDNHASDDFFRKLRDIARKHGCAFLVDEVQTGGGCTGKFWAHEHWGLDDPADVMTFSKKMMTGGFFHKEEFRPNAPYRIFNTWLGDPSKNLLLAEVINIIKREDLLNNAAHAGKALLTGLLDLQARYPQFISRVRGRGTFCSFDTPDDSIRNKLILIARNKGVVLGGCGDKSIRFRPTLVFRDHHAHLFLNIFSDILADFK

On to `CNCCC(Oc1ccc(C(F)(F)F)cc1)c1ccccc1.Cl` (racemic) [Fluoxetine hydrochloride, N-methyl-3-(p-trifluormethylphenoxy)3-phenylpropylamine], for which, in series [1], the elimination half-life was 1 to 9 days and the “elimination half-life, averaging” value is 2 to 3 days.

Regarding `CNCC(O)CC12CCC(c3ccccc31)c1ccccc12` (racemic) [oxaprotiline, (±)-α-[(Methylamino)-methyl]-9,10-ethanoanthracene-9(10H)-ethanol], the “Hamilton Scores” value in series [2] is on record as “significant reduction”. For the molecule `CCN(CC)C(=O)[C@@]1(c2ccccc2)C[C@H]1CN` (single isomer, unassigned) [dextrogyral enantiomer of milnacipran], the “activity in inhibiting norepinephrine and serotonin reuptake versus the racemic mixture” value in series [3] is reported as “about twice as active”.

For the molecule `CCN(CC)C(=O)[C@@]1(c2ccccc2)C[C@H]1CN` (single isomer, unassigned) [levrogyral enantiomer], in [3], the “activity in inhibiting norepinephrine and serotonin reuptake versus the racemic mixture” value is given as “much less potent”. On to `CC(NC(C)(C)C)C(=O)c1cccc(Cl)c1` (stereo not drawn) [Bupropion], for which, in [4] (after chronic dosing), the “mean elimination half-life (±SD)” value is 21 (±9) hours. Also, in series [4] (oral administration), the “terminal phase mean half-life” value was 14 h. Regarding `CNCCCN1c2ccccc2CCc2ccccc21` [Desipramine hydrochloride, 10,11-Dihydro-N-methyl-5H-dibenz[b,f]azepine-5-propanamine], the “solubility in water (in words)” value in [5] is recorded as “soluble in water”. For the molecule `c1ccc(CCCN2CCN(CCOC(c3ccccc3)c3ccccc3)CC2)cc1` [GBR-12935, 1-[2-(diphenylmethoxy)ethyl]-4-(3-phenylpropyl)piperazine dihydrochloride], in [6], the inhibition constant Ki (commonly the dissociation constant of the complex between target and ligand, obtained from inhibition or displacement) was 225 nM. In the case of `CC(=O)N(C)c1cccc(-c2ccnc3c(C(=O)c4cccs4)cnn23)c1` [Indiplon, N-methyl-N-(3-{3-[2-thienylcarbonyl]-pyrazolo-[1,5-a]-pyrimidin-7-yl}-phenyl)acetamide], the “resulting pH of solution in water” value in series [5] (at approximately 20-30 µg/mL) is on record as “approximately 8.0”. Moreover, the soluble in water in [5] (resulting pH approximately 8.0) is 20 to 30 µg/mL. In addition, the half-life in vivo result in [7] was “approximately 1.3 hours”. As to `CNCCCC12CCC(c3ccccc31)c1ccccc12` [Maprotiline hydrochloride, N-Methyl-9,10-ethanoanthracene-9(10H)-propanamine], the “solubility in water (in words)” value in series [5] is recorded as “slightly soluble in water”. Consider `Oc1noc2c1CCNC2` [gaboxadol, 4,5,6,7-tetrahydroisoxazolo[5,4-c]pyridin-3-ol], for which the “potency versus GABA, inhibition of the firing of central neurones” value in series [8] is listed as “relatively more potent than GABA”. Also, in the series with GABA uptake system, the “interaction with the GABA uptake system” value is given as “did not interact”. The “interaction with GABA:2-oxo-glutarate aminotransferase” value in series [9] is given as “did not interact”. Also, the “interaction with L-glutamate 1-carboxylase” value in series [10] is “did not interact”. As to `CCC1(c2ccccc2)CCC(=O)NC1=O` (stereo not drawn) [glutethimide], the ED100 in the series with mice is 300 mg/kg. As to `O=C(CCCN1CCC(O)(c2ccc(Cl)cc2)CC1)c1ccc(F)cc1` [haloperidol], in the series with mice, the ED100 is listed as 10 mg/kg. As to `CCCC(C)(COC(N)=O)COC(N)=O` [meprobamate], in the series on mice, the ED100 is recorded as 300 mg/kg. For `CCCC(C)C1(CC)C(=O)NC(=O)NC1=O` (stereo not drawn) [pentobarbital], the ED100 with mice is recorded as 100 mg/kg. In the case of `COC(=O)[C@H]1[C@H]2C[C@@H]3c4[nH]c5cc(OC)ccc5c4CCN3C[C@H]2C[C@@H](OC(=O)c2cc(OC)c(OC)c(OC)c2)[C@@H]1OC` [reserpine], the ED100 with mice was 50 mg/kg. Regarding `CNCC[C@@H](Oc1ccccc1C)c1ccccc1` [tomoxetine, (R)-(−)-N-methyl-3-(2-methylphenoxy)-3-phenylpropylamine], in [11], the drug-related adverse effects entry is reported as “no serious drug-related adverse effects were observed”.

For the molecule `Cc1ccc(-c2nc3ccc(C)cn3c2CC(=O)N(C)C)cc1` [zolpidem, N,N,6-trimethyl-2-(4-methylphenyl)-imidazo [1,2-s]pyridine-3-acetamide], the duration of action result in series [12] is recorded as “up to 6 hours”.
